{"source": "patent US12377155B2", "about": "“Bicyclic peptide ligands specific for PSMA” (BicycleRD Limited, priority 2018, dated 2025)", "molecular_target": "PSMA (Homo sapiens, UniProt Q04609)", "sequence (Q04609 whole entry)": "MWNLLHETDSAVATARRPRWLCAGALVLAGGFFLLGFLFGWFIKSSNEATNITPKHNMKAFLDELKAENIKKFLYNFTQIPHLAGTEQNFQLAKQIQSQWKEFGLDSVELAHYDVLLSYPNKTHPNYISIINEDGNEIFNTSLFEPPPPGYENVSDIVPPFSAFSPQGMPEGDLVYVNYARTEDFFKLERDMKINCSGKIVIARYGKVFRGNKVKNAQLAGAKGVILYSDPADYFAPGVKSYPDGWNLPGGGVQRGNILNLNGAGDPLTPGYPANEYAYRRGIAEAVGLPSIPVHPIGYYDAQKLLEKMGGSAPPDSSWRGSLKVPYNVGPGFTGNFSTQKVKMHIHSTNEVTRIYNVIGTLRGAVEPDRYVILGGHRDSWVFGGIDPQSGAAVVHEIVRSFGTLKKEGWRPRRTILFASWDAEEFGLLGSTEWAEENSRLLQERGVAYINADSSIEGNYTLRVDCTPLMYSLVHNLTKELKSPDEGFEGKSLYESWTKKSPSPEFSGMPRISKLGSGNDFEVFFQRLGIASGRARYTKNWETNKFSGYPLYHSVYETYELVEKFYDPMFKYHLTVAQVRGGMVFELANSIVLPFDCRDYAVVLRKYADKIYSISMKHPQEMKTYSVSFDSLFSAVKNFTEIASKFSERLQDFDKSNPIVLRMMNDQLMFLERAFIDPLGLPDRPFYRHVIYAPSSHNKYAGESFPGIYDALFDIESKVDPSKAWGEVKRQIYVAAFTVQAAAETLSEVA", "experiment": "PSMA binding, fluorescence polarization assay", "details": "as shown in Table 1", "description": "PSMA binding was measured using the fluorescence polarization assay methodology described in Shen et al (2013) PLOS ONE 8(7), […] and PSMA enzyme inhibition was measured using the methodology described in WO 2009/070302.\nThe peptide ligands of the invention were tested in the above mentioned PSMA binding and enzyme inhibition assays and the results are shown in Table 1: […]"}
{"substance": "Ac-(D-E)VCWDCFM(Nle)EDGTCA-Sar6-(D-K) [21-31-04-T01-N009]", "values": [{"measurement": "PSMA binding (statement in words)", "value": "superior PSMA binding"}]}
{"substance": "EVCWDCFMMEDGTCA [21-31-04-T01-N001]", "values": [{"measurement": "PSMA binding (statement in words)", "value": "superior PSMA binding"}]}
{"substance": "FCSECYMMEDGTCA [21-31-11-T01-N001]", "values": [{"measurement": "PSMA binding (statement in words)", "value": "superior PSMA binding"}]}
{"substance": "LCMECYMMEDGTCA [21-31-12-T01-N001]", "values": [{"measurement": "PSMA binding (statement in words)", "value": "superior PSMA binding"}]}
